From patent US20080269213A1, “8-Hydroxyquinoline compounds and methods thereof” (Wyeth, priority 2006, published 2008) come the findings set out here.

Each structure is given as a SMILES string.

Assay [1] has as its target T1, recombinant human Aggrecanase-2 Agg2-Phe628 (Homo sapiens, UniProt Q9UNA0).
T1 sequence (Q9UNA0 262-628 limits assumed): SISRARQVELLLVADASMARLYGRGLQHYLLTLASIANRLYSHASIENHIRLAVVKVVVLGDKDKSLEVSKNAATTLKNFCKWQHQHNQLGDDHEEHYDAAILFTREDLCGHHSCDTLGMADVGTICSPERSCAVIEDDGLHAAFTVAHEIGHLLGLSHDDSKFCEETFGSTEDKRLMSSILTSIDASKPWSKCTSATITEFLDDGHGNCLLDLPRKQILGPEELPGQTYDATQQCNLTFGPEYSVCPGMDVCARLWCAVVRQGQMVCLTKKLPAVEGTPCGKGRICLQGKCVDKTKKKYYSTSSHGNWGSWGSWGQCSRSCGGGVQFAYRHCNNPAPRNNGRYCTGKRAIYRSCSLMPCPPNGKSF
In words: Aggrecanase 2 enzyme fluorescence polarization assay. The format is binding. Further details: recombinant human Aggrecanase-2, Agg2-Phe628 (41737 Da); This is a truncated form of full-length human aggrecanase-2; made in house. The source says: The fluorescence polarization assay is used to determine the dissociation constant of the enzyme:inhibitor complex (Ki) and the binding interaction mode (competitive, non-competitive or uncompetitive) of reversible inhibitors. The fluorescence polarization assay monitors the rotational motion of the fluorescent ligand. In the free state the fluorescent ligand has high rotational motion corresponding to a low polarization value and when fully bound to the protein, the fluorescent ligand has a lower rotational motion, corresponding to a higher polarization value. […]
Stock solutions of the fluorescent ligand are prepared in 100% DMSO and aliquots are stored at −80° C. The stock concentration was determined by a NMR ratio method, comparing the area under the control compound peak (TSP; trimethyl silyl proprionate sodium salt) to the area under a well-defined sample peak.
To determine the dissociation constant between Aggrecanase-2 and Compound C, saturation experiments were performed by adding various concentrations of aggrecanase to a constant concentration of Compound C (2 nM), in the assay buffer 50 mM HEPES-NaOH (pH 7.4), 100 mM NaCl, 5 mM CaCl2, 0.005% Brij-35. Anisotropy values were calculated and converted to fraction bound values as described in the data analysis section below. […] The equilibrium dissociation constant was determined to be 60+/−2.9 nM. […]
On the technique in general: Polarisation of emitted light reports the rotation of a fluorescent probe.

Assay [2] deals with T1, recombinant human Aggrecanase-2 Agg2-Phe628. In words: Aggrecanase 2 in vitro enzyme assay (Agg-2 FRET, quenched fluorescent peptide substrate). The assay is classed as biochemical. Further details: purified recombinant human Aggrecanase-2 Agg2-Phe628 (MW=41,737); This is a truncated form of full-length human aggrecanase-2; made in house; host or cells: CHO cells. Conditions: established value of positive control; read-out: IC50 for rAgg-2. The method in brief: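 Continuous FRET assay with purified truncated human Aggrecanase-2 Agg2-Phe628 (CHO-expressed, 0.5 μg/ml final) and brevican-derived Abz/Dnp peptide (25 μM final) in 50 mM HEPES pH 7.5, 100 mM NaCl, 5 mM CaCl2, 0.1% CHAPS, 5% glycerol. Enzyme preincubated with compound before substrate; fluorescence (ex 340/em 420 nm) followed kinetically 40 min at 30 °C.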

In the case of `CN([C@H](CCCCCNC(=O)c1ccc(-c2c3cc(F)c(=O)cc-3oc3cc(O)c(F)cc23)c(C(=O)O)c1)C(=O)NO)S(=O)(=O)c1ccc(OCc2ccccc2)cc1` [Compound C], in assay [1] (saturation experiment, 2 nM ligand, read-out: equilibrium dissociation constant between Aggrecanase-2 and fluorescent ligand), the Kd came out at 0.06 µM.

On to `CN([C@H](CCCCNC(=O)OC(C)(C)C)C(=O)NO)S(=O)(=O)c1ccc(OCc2ccccc2)cc1` [Compound B, reference compound], for which the IC50 – broadly, the point on the concentration scale where inhibition reaches its midpoint – in assay [2] is 0.037 µM. In addition, the Ki (in general, the equilibrium dissociation constant of an inhibitor or competing ligand from its target) in assay [1] (established value of positive control, read-out: Ki for rAgg-2) worked out at 0.039 µM.
